What was measured:
[1] = molecular target: recombinant human DPPI (Cathepsin C) (Homo sapiens (Human), UniProt P53634); test: Inhibition of human DPPI (Cathepsin C); type: biochemical; details: substrate Gly-Arg-AMC
Procedure, shortened: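 Fluorescence read after 30 min room-temperature turnover of 50 μM (final) substrate by recombinant human cathepsin C, pH 6.0 MES/NaCl/DTT/BSA buffer, quenched by Gly-Phe-DMK (1 μM final). Activity as percent of vehicle after background subtraction, used for IC50.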

[2] = Determination of metabolic stability with human liver microsomes; details: pooled human liver microsomes; for half-life at 1 μM: human, pH 7.6
[3] = molecular target: recombinant human Cathepsin K (Homo sapiens (Human), UniProt P43235); test: Inhibition of human Cathepsin K; type: biochemical; details: substrate Z-Gly-Pro-Arg-AMC
Excerpt: Inhibition of Human Cathepsin K
Materials: Microtiterplates (Optiplate-384 F were purchased from PerkinElmer (Prod. No. 6007270). The substrate Z-Gly-Pro-Arg-AMC was from Biomol (Prod.-No. P-142). L-Cysteine (Prod. No. 168149) was from Sigma. Sodium acetate was from Merck (Prod.-No. 6268.0250), EDTA was from Fluka (Prod.-No. 03680). The inhibitor E-64 was purchased from Sigma (Prod.-No. E3132). The recombinant human Cathepsin K proenzyme was purchased from Biomol (Prod. No. SE-367). All other materials were of highest grade commercially available.
The following buffers were used: Activation buffer: 32.5 mM sodium acetate, adjusted to pH 3.5 with HCl; Assay buffer: 150 mM sodium acetate, 4 mM EDTA, 20 mM L-Cysteine, adjusted to pH 5.5 with HCl,
To activate the proenzyme, 5 μl procathepsin K were mixed with 1 ul activation buffer, and incubated at room temperature for 30 min.
5 μL test compound (final concentration 0.1 nM to 100 μM) in aqua bidest (containing 4% DMSO, final DMSO concentration 1%) were mixed with 10 uL of Cathepsin K in assay buffer (final concentration 2 ng/μL) and incubated for 10 min. […] The plates were then incubated at room temperature for 60 min. Then, the reaction was stopped by adding 10 μL of E64 in assay buffer (final concentration 1 μM). The fluorescence in the wells was determined using a Molecular Devices SpectraMax M5 Fluorescence Reader (Ex 360 nm, Em 460 nm).
Each assay microtiter plate contains wells with vehicle controls (1% DMSO in bidest) as reference for non-inhibited enzyme activity (100% Ctl; high values) and wells with inhibitor (E64 in bidest+1% DMSO, final concentration […]) as controls for background fluorescence (0% Ctl; low values). The analysis of the data was performed by calculating the percentage of fluorescence in the presence of test compound in comparison to the fluorescence of the vehicle control after subtracting the background fluorescence: (RFU(sample)−RFU(background))*100/(RFU(control)−RFU(background))
Data from these calculations were used to generate IC50 values for inhibition of Cathepsin K, respectively.

Sequence of recombinant human Cathepsin K (P43235 115-329): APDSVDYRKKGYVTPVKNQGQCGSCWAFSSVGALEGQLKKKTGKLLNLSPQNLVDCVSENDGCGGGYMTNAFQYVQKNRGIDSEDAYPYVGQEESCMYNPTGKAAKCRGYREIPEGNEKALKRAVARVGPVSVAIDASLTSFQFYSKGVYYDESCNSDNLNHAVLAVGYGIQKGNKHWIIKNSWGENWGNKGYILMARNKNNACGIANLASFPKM
Sequence of recombinant human DPPI (Cathepsin C) (P53634 231-394): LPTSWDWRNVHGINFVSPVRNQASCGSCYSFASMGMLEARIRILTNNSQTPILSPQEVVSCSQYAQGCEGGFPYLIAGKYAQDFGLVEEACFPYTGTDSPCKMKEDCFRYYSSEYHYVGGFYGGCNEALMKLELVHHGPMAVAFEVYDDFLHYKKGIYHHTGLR
Sequence of recombinant human DPPI (Cathepsin C) (P53634 395-463): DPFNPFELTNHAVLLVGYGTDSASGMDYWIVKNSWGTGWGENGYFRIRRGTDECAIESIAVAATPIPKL
Sequence of recombinant human DPPI (Cathepsin C) (P53634 25-134): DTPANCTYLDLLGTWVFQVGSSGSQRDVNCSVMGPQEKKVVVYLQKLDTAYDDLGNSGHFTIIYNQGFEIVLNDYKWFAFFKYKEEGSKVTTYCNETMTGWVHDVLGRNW

SMILES | IC50 [1] [nM] | half-life at 1 μM [2] [min] | IC50 [3] [µM] | In vitro stability in human liver microsome incubations t½ ([2]; 1 μM test compound, 37° C., NADPH) [min]
N#CC(Cc1ccc2c(c1)c(=O)[nH]c1ccccc12)NC(=O)[C@H]1N[C@@H]2CC[C@H]1C2 (stereo partly drawn) [Example 9, (1S,2S,4R)—N-[1-cyano-2-(6-oxo-5H-phenanthridin-8-yl)ethyl]-3-azabicyclo[2.2.1]heptane-2-carboxamide] | 9.6 | > 120 | – | –
CN1CCN(c2ccc(C[C@@H](C#N)NC(=O)[C@H]3N[C@@H]4CC[C@H]3C4)c(F)c2)C(=O)C1 [Example 125] | 206 | > 130 | – | –
N#C[C@H](Cc1ccc(-c2ccc(Cl)nc2)cc1F)NC(=O)[C@H]1N[C@H]2C[C@@H]1[C@@H]1C[C@@H]12 [Example 145] | 53.8 | – | 7.4 | –
N#C[C@H](Cc1ccc(-c2cccc(C(N)=O)c2)cc1F)NC(=O)[C@H]1N[C@H]2C[C@@H]1[C@@H]1C[C@@H]12 [Example 146] | 30.5 | – | 9.6 | –
N#CC(Cc1ccc(-c2ccc3c(c2)CCNC3=O)cc1F)NC(=O)[C@H]1N[C@H]2C[C@@H]1[C@@H]1C[C@@H]12 (stereo partly shown) [Example 148] | 30.4 | – | 14.6 | –
CN1Cc2cc(-c3ccc(C[C@@H](C#N)NC(=O)[C@H]4N[C@H]5C[C@@H]4[C@@H]4C[C@@H]45)c(F)c3)ccc2C1=O [Example 149] | 38.7 | – | 7.6 | –
CNS(=O)(=O)c1ccc(-c2ccc(C[C@@H](C#N)NC(=O)[C@H]3N[C@H]4C[C@@H]3[C@@H]3C[C@@H]34)c(F)c2)cc1 [Example 150] | 38.6 | – | 9.3 | –
CCS(=O)(=O)c1ccc(-c2ccc(C[C@@H](C#N)NC(=O)[C@H]3N[C@H]4C[C@@H]3[C@@H]3C[C@@H]34)c(F)c2)cc1 [Example 151] | 36.9 | – | 4.8 | –
CNC(=O)c1cc(-c2ccc(C[C@@H](C#N)NC(=O)[C@H]3N[C@@H]4CC[C@H]3C4)c(F)c2)cs1 [Example 161] | 1.9 | – | 10.7 | –
N#Cc1ccc(-c2ccc(C[C@@H](C#N)NC(=O)[C@H]3N[C@@H]4CC[C@H]3C4)c(F)c2)o1 [Example 162] | 2 | > 130 | – | –
CC1(C)OC(=O)c2cc(-c3ccc(C[C@@H](C#N)NC(=O)[C@H]4N[C@@H]5CC[C@H]4C5)c(F)c3)ccc21 [Example 166] | 3.3 | 94 | – | –
N#C[C@H](Cc1ccc(-c2cnn(-c3ccccc3)c2)cc1F)NC(=O)[C@H]1N[C@@H]2CC[C@H]1C2 [Example 171] | 5 | 83 | – | –
COCCN1CCN(c2ccc(C[C@@H](C#N)NC(=O)[C@H]3N[C@@H]4CC[C@H]3C4)c(F)c2)CC1C (stereo partly shown) [Example 178] | 7.4 | > 130 | – | –
N#C[C@H](Cc1ccc(-n2cccn2)cc1F)NC(=O)[C@H]1N[C@@H]2CC[C@H]1C2 [Example 180] | 7.7 | > 120 | – | –
CS(=O)(=O)c1cc(-c2ccc(C[C@@H](C#N)NC(=O)[C@H]3N[C@@H]4CC[C@H]3C4)c(F)c2F)ccc1C#N [Example 183] | 8.8 | > 130 | – | –
CCNC(=O)c1ccc(-c2ccc(C[C@@H](C#N)NC(=O)[C@H]3N[C@@H]4CC[C@H]3C4)c(F)c2)cc1 [Example 184] | 8.8 | > 130 | – | –
CNC(=O)c1ccc(-c2ccc(C[C@@H](C#N)NC(=O)[C@H]3N[C@@H]4CC[C@H]3C4)c(F)c2)cc1 [Example 186] | 9.6 | – | 3.5 | –
C[C@H]1CN(C)CCN1c1ccc(C[C@@H](C#N)NC(=O)[C@H]2N[C@@H]3CC[C@H]2C3)c(F)c1 [Example 188] | – | 97 | – | –
N#C[C@H](Cc1ccc(OCCN2CCNCC2)cc1F)NC(=O)[C@H]1N[C@@H]2CC[C@H]1C2 [Example 189] | 10.4 | > 130 | – | –
COCCN1C(C)CN(c2ccc(C[C@@H](C#N)NC(=O)[C@H]3N[C@@H]4CC[C@H]3C4)c(F)c2)CC1C (stereo partly shown) [Example 191] | 11.2 | 91 | – | –
CC1CN(C)CCN1c1ccc(C[C@@H](C#N)NC(=O)[C@H]2N[C@@H]3CC[C@H]2C3)c(F)c1 (stereo partly shown) [Example 192] | – | > 130 | – | –
N#C[C@H](Cc1ccc(-c2cnc3cnccn23)cc1F)NC(=O)[C@H]1N[C@@H]2CC[C@H]1C2 [Example 194] | 13.3 | 85 | – | –

SMILES | IC50 [1] [nM] | half-life at 1 μM [2] [min] | IC50 [3] [µM] | In vitro stability in human liver microsome incubations t½ ([2]; 1 μM test compound, 37° C., NADPH) [min]
CC1CN(c2ccc(C[C@@H](C#N)NC(=O)[C@H]3N[C@@H]4CC[C@H]3C4)c(F)c2)C(C)CN1C (stereo partly shown) [Example 196] | 15.1 | > 130 | – | –
N#CC(Cc1ccc2c(c1)[nH]c1ccccc12)NC(=O)[C@H]1N[C@@H]2CC[C@H]1C2 (stereo partly shown) [Example 203] | 23.3 | – | 8.4 | –
N#C[C@H](Cc1ccc(N2CCOCC2)cc1F)NC(=O)[C@H]1N[C@@H]2CC[C@H]1C2 [Example 205] | 25.9 | > 130 | – | –
N#C[C@H](Cc1ccc(-c2cnc3n2CCC3)cc1F)NC(=O)[C@H]1N[C@@H]2CC[C@H]1C2 [Example 221] | 3.7 | > 130 | – | –
COCCN1CCN(C(=O)c2cc(-c3ccc(C[C@@H](C#N)NC(=O)[C@H]4N[C@@H]5CC[C@H]4C5)c(F)c3)cs2)CC1 [Example 228] | 1.6 | – | 2 | –
N#C[C@H](Cc1ccc(-c2csc(C(=O)N3CCN(C4CC4)CC3)c2)cc1F)NC(=O)[C@H]1N[C@@H]2CC[C@H]1C2 [Example 229] | 1.7 | – | 1.6 | –
N#C[C@H](Cc1ccc(-c2csc(C(=O)N3CCN4CCOCC4C3)c2)cc1F)NC(=O)[C@H]1N[C@@H]2CC[C@H]1C2 (stereo partly shown) [Example 234] | 3.8 | – | 2.9 | –
N#C[C@H](Cc1ccc(-c2ccc(C(=O)N3CCn4nccc4C3)s2)cc1F)NC(=O)[C@H]1N[C@@H]2CC[C@H]1C2 [Example 237] | 4.6 | – | 1.9 | –
N#C[C@H](Cc1ccc(N2CCC3C(=O)NCCC3C2)cc1F)NC(=O)[C@H]1N[C@@H]2CC[C@H]1C2 (stereo partly shown) [Example 248] | 18 | > 130 | – | –
Cn1ccc(-c2ccc(C[C@@H](C#N)NC(=O)[C@H]3N[C@@H]4CC[C@H]3C4)c(F)c2)cc1=O [Example 255] | 10.9 | > 130 | – | –
N#C[C@H](Cc1ccc(-c2ccc(=O)[nH]c2)cc1F)NC(=O)[C@H]1N[C@@H]2CC[C@H]1C2 [Example 258] | 7.9 | > 130 | – | –
CS(=O)(=O)c1ccn(-c2ccc(C[C@@H](C#N)NC(=O)[C@H]3N[C@@H]4CC[C@H]3C4)c(F)c2)c(=O)c1 [Example 266] | 43.7 | > 130 | – | –
N#C[C@H](Cc1ccc(N2CCCN3CCCC3C2)cc1F)NC(=O)[C@H]1N[C@@H]2CC[C@H]1C2 (stereo partly shown) [Example 271] | – | – | – | 130
CCN1CCN(c2ccc(C[C@@H](C#N)NC(=O)[C@H]3N[C@@H]4CC[C@H]3C4)c(F)c2)CC1 [Example 272] | 6.8 | > 130 | – | –
CN(C)CCCN1C(=O)Cc2ccc(-c3ccc(C[C@@H](C#N)NC(=O)[C@H]4N[C@@H]5CC[C@H]4C5)c(F)c3)cc21 [Example 277] | 3 | > 130 | – | –
N#C[C@H](Cc1ccc([C@H]2CCN3CCOC[C@H]3C2)cc1F)NC(=O)[C@H]1N[C@@H]2CC[C@H]1C2 [Example 284] | – | 58 | – | –
CN1CCN(C(=O)c2ccc(-c3ccc(C[C@@H](C#N)NC(=O)[C@H]4N[C@@H]5CC[C@H]4C5)c(F)c3)o2)CC1 [Example 289] | 2.5 | 110 | – | –
N#CC(Cc1ccc2c(c1)c(=O)[nH]c1c(F)cc(C(N)=O)cc12)NC(=O)[C@H]1N[C@@H]2CC[C@H]1C2 (stereo partly shown) [Example 291] | 5.9 | > 130 | – | –
N#Cc1ccc2c(c1)[nH]c(=O)c1cc(CC(C#N)NC(=O)[C@H]3N[C@@H]4CC[C@H]3C4)c(F)cc12 (stereo partly shown) [Example 292] | 0.9 | 94 | – | –
N#CC(Cc1ccc2c(c1)c(=O)[nH]c1cc(Cl)ccc12)NC(=O)[C@H]1N[C@@H]2CC[C@H]1C2 (stereo partly shown) [Example 297] | 3.2 | – | 12.4 | –
Cn1c(=O)c2cc(C[C@@H](C#N)NC(=O)[C@H]3N[C@@H]4CC[C@H]3C4)c(F)cc2c2ccccc21 [Example 326] | 1.9 | – | 1.1 | –

— US8987249B2, “Substituted 2-Aza-bicyclo[2.2.1]heptane-3-carboxylic acid (benzyl-cyano-methyl)-amides inhibitors of Cathepsin C” (Boehringer Ingelheim International GmbH, priority 2013, dated 2015)
